“And” between values parts separate entries of the source, which are not always exact repeats. Equal values may be shown once. “Also recorded” adds a separate entry of the source.
Key:
CHO-RMc4luc cells [1] = assay: Alternate glucocorticoids vs. dexamethasone in the non-starved CHO-RMc4 assay; assay type: cell-based, Chinese hamster; conditions: for signal intensity (RLU) compared to 40 μM dexamethasone: FIG. 17
Method: The data was collected in accordance with the protocol outlined in Example 17. The data was calculated as the difference (Δ) in RLU values or SRR % values for each glucocorticoid (GC) concentration by subtracting the RLU value or SRR % value for the Normal control at that concentration from the RLU value or SRR % value for the Positive control at that concentration, respectively.
Four GCs were examined in this study: i) Prednisone (Sigma); ii) Hydrocortisone (Sigma); iii) Fluticasone Propionate (Sigma); and iv) Cortisone (Sigma). A stock concentration (100 mM) of each GC was made in DMSO. 1:10 (10 mM) and 1:100 (1 mM) dilutions, in DMSO, were then made from the 100 mM stock. All DMSO/GC stocks were clear with no visible precipitate.
Growth Media containing different concentrations of each GC were made as follows: i) 100 μM GC Medium: 5 μL of 100 mM GC Stock+5 mL SR097 (w/o Dex); ii) 50 μM GC Medium: 2.5 μL of 100 mM GC Stock+5 mL SR097 (w/o Dex); iii) 10 μM GC Medium: 5 μL of 10 mM GC Stock+5 mL SR097 (w/o Dex); iii) 1 μM GC Medium: 5 μL of 1 mM GC Stock+5 mL SR097 (w/o Dex); and iv) 0.1 μM GC Medium: 0.5 μL of 1 mM GC Stock+5 mL SR097 (w/o Dex). […] Additional controls included Growth Medium containing 1 μl/ml dimethylsulfoxide (DMSO) as a solvent control and Growth Medium without any glucocorticoids.
Each assay was performed by using two (2) microwell plates for each glucocorticoid tested. The sample layouts for each plate are identified below: […]

CHO-RMc4luc cells [2] = assay: Effect of dexamethasone on starved CHO-RMc4luc cells (luciferase); assay type: cell-based, Chinese hamster; conditions: for % of S/B, Patient #18 Serum: 0 uM = 100; for RLU, Patient #18 Serum, Average / S/B, Patient #18 Serum / RLU, Patient #18 Serum, Test 1-3 / RLU, Reference Serum, Avg / RLU, Reference Serum, Test 1-3: starved cells; for RLU, Patient #18 Serum, Test 1-3 / RLU, Reference Serum, Test 1-3: listed as DEX
Method: CHO-Rluc (041307A) and CHO-RMc4luc (062707, P8, 3e6/ml) cells were each brought up in 5 ml CHO growth media.
The cells were then rinsed with reaction buffer and serum (diluted 1:11) was added to 100 μl of reaction buffer already in the well. Serums used were: i) reference 121506R; ii) PC 121506P; and iii) patient #18 TSI serum.
After 4 hours of induction the plates were lysed with 75 ul of Bright Glo®, lysed for 5 minutes, and then read on a Veritas luminometer.

[3] = glucocorticoid 0.1 μM in Growth Medium
[4] = glucocorticoid 1 μM in Growth Medium
[5] = glucocorticoid 10 μM in Growth Medium
[6] = glucocorticoid 50 μM in Growth Medium
[7] = glucocorticoid 100 μM in Growth Medium
[8] = 40 μM in Growth Medium (control)

With `CCC(=O)O[C@]1(C(=O)SCF)[C@H](C)C[C@H]2[C@@H]3C[C@H](F)C4=CC(=O)C=C[C@]4(C)[C@@]3(F)[C@@H](O)C[C@@]21C` [Fluticasone Proprionate, Fluticasone Propionate] the “signal intensity (RLU) compared to 40 μM dexamethasone” value (CHO-RMc4luc cells [1]) was “equal signal intensities”, the “Δ (positive - normal) RLU” value (CHO-RMc4luc cells [1]; [3]) was 9768 RLU and the “Δ (positive - normal) SRR % s” value (CHO-RMc4luc cells [1]; [3]) was 161%. For the same compound, the “Δ (positive - normal) RLU” value (CHO-RMc4luc cells [1]; [4]) was 8806 RLU, the “Δ (positive - normal) SRR % s” value (CHO-RMc4luc cells [1]; [4]) was 148% and the “Δ (positive - normal) RLU” value (CHO-RMc4luc cells [1]; [5]) was 8774 RLU. For the same compound, the “Δ (positive - normal) SRR % s” value (CHO-RMc4luc cells [1]; [5]) was 168%, the “Δ (positive - normal) RLU” value (CHO-RMc4luc cells [1]; [6]) was 6996 RLU and the “Δ (positive - normal) SRR % s” value (CHO-RMc4luc cells [1]; [6]) was 137%. For the same compound, the “Δ (positive - normal) RLU” value (CHO-RMc4luc cells [1]; [7]) was 6366 RLU and the “Δ (positive - normal) SRR % s” value (CHO-RMc4luc cells [1]; [7]) was 155%.

`C[C@@H]1C[C@H]2[C@@H]3CCC4=CC(=O)C=C[C@]4(C)[C@@]3(F)[C@@H](O)C[C@]2(C)[C@@]1(O)C(=O)CO` [Dexamethasone, dexamethasone] was tested, and the “% of S/B, Patient #18 Serum” value (CHO-RMc4luc cells [2]; DEX 12.5 uM) was 180%, the “RLU, Patient #18 Serum, Average” value (CHO-RMc4luc cells [2]; DEX 12.5 uM) was 5165 RLU and the “S/B, Patient #18 Serum” value (CHO-RMc4luc cells [2]; DEX 12.5 uM) was 39.8. For the same compound, the “RLU, Patient #18 Serum, Test 1-3” value (CHO-RMc4luc cells [2]; DEX 12.5 uM) was 4710 RLU and 5456 RLU and 5330 RLU, the “% of S/B, Patient #18 Serum” value (CHO-RMc4luc cells [2]; DEX 25 uM) was 183% and the “RLU, Patient #18 Serum, Average” value (CHO-RMc4luc cells [2]; DEX 25 uM) was 5194 RLU. For the same compound, the “RLU, Reference Serum, Avg” value (CHO-RMc4luc cells [2]; DEX 25 uM) was 127 RLU, the “S/B, Patient #18 Serum” value (CHO-RMc4luc cells [2]; DEX 25 uM) was 40.6 and the “RLU, Patient #18 Serum, Test 1-3” value (CHO-RMc4luc cells [2]; DEX 25 uM) was 5172 RLU and 5151 RLU and 5260 RLU. For the same compound, the “RLU, Reference Serum, Test 1-3” value (CHO-RMc4luc cells [2]; DEX 25 uM) was 129 RLU and 132 RLU, the “% of S/B, Patient #18 Serum” value (CHO-RMc4luc cells [2]; DEX 40 uM) was 182% and the “RLU, Patient #18 Serum, Average” value (CHO-RMc4luc cells [2]; DEX 40 uM) was 5092 RLU. The “RLU, Reference Serum, Avg” value (CHO-RMc4luc cells [2]; DEX 40 uM) was 126 RLU, the “S/B, Patient #18 Serum” value (CHO-RMc4luc cells [2]; DEX 40 uM) was 40.4 and the “RLU, Patient #18 Serum, Test 1-3” value (CHO-RMc4luc cells [2]; DEX 40 uM) was 5039 RLU and 5198 RLU and 5038 RLU. The “RLU, Reference Serum, Test 1-3” value (CHO-RMc4luc cells [2]; DEX 40 uM) was 128 RLU, the “% of S/B, Patient #18 Serum” value (CHO-RMc4luc cells [2]; DEX 50 uM) was 181% and the “RLU, Patient #18 Serum, Average” value (CHO-RMc4luc cells [2]; DEX 50 uM) was 5023 RLU. For the same compound, the “RLU, Reference Serum, Avg” value (CHO-RMc4luc cells [2]; DEX 50 uM) was 125 RLU, the “S/B, Patient #18 Serum” value (CHO-RMc4luc cells [2]; DEX 50 uM) was 40.1 and the “RLU, Patient #18 Serum, Test 1-3” value (CHO-RMc4luc cells [2]; DEX 50 uM) was 4861 RLU and 5298 RLU and 4909 RLU. For the same compound, the “RLU, Reference Serum, Test 1-3” value (CHO-RMc4luc cells [2]; DEX 50 uM) was 135 RLU, the “% of S/B, Patient #18 Serum” value (CHO-RMc4luc cells [2]; DEX 100 uM) was 140% and the “RLU, Patient #18 Serum, Average” value (CHO-RMc4luc cells [2]; DEX 100 uM) was 3492 RLU. For the same compound, the “RLU, Reference Serum, Avg” value (CHO-RMc4luc cells [2]; DEX 100 uM) was 112 RLU, the “S/B, Patient #18 Serum” value (CHO-RMc4luc cells [2]; DEX 100 uM) was 31.1 and the “RLU, Patient #18 Serum, Test 1-3” value (CHO-RMc4luc cells [2]; DEX 100 uM) was 3542 RLU and 3414 RLU and 3521 RLU. For the same compound, the “RLU, Reference Serum, Avg” value (CHO-RMc4luc cells [2]; DEX 12. uM) was 129 RLU, the “RLU, Reference Serum, Test 1-3” value (CHO-RMc4luc cells [2]; DEX 12. uM) was 129 RLU and 141 RLU and the “Δ (positive - normal) RLU” value (CHO-RMc4luc cells [1]; [8]) was 9375 RLU. The “Δ (positive - normal) SRR % s” value (CHO-RMc4luc cells [1]; [8]) was 282%.

With `C[C@]12CCC(=O)C=C1CC[C@@H]1[C@@H]2C(=O)C[C@@]2(C)[C@H]1CC[C@]2(O)C(=O)CO` [Cortisone] the “signal intensity (RLU) compared to 40 μM dexamethasone” value (CHO-RMc4luc cells [1]) was “equivalent to dexamethasone; also recorded: equal signal intensities”, the “Δ (positive - normal) RLU” value (CHO-RMc4luc cells [1]; [3]) was 10494 RLU and the “Δ (positive - normal) SRR % s” value (CHO-RMc4luc cells [1]; [3]) was 169%. For the same compound, the “Δ (positive - normal) RLU” value (CHO-RMc4luc cells [1]; [4]) was 9474 RLU, the “Δ (positive - normal) SRR % s” value (CHO-RMc4luc cells [1]; [4]) was 151% and the “Δ (positive - normal) RLU” value (CHO-RMc4luc cells [1]; [5]) was 9847 RLU. The “Δ (positive - normal) SRR % s” value (CHO-RMc4luc cells [1]; [5]) was 151%, the “Δ (positive - normal) RLU” value (CHO-RMc4luc cells [1]; [6]) was 8738 RLU and the “Δ (positive - normal) SRR % s” value (CHO-RMc4luc cells [1]; [6]) was 162%. For the same compound, the “Δ (positive - normal) RLU” value (CHO-RMc4luc cells [1]; [7]) was 8106 RLU and the “Δ (positive - normal) SRR % s” value (CHO-RMc4luc cells [1]; [7]) was 176%.

With `C[C@]12CCC(=O)C=C1CC[C@@H]1[C@@H]2[C@@H](O)C[C@@]2(C)[C@H]1CC[C@]2(O)C(=O)CO` [Hydrocortisone] the “signal intensity (RLU) compared to 40 μM dexamethasone” value (CHO-RMc4luc cells [1]) was “equivalent to dexamethasone; also recorded: equal signal intensities”, the “Δ (positive - normal) RLU” value (CHO-RMc4luc cells [1]; [3]) was 9889 RLU and the “Δ (positive - normal) SRR % s” value (CHO-RMc4luc cells [1]; [3]) was 158%. The “Δ (positive - normal) RLU” value (CHO-RMc4luc cells [1]; [4]) was 9149 RLU, the “Δ (positive - normal) SRR % s” value (CHO-RMc4luc cells [1]; [4]) was 155% and the “Δ (positive - normal) RLU” value (CHO-RMc4luc cells [1]; [5]) was 9757 RLU. The “Δ (positive - normal) SRR % s” value (CHO-RMc4luc cells [1]; [5]) was 153%, the “Δ (positive - normal) RLU” value (CHO-RMc4luc cells [1]; [6]) was 8950 RLU and the “Δ (positive - normal) SRR % s” value (CHO-RMc4luc cells [1]; [6]) was 178%. The “Δ (positive - normal) RLU” value (CHO-RMc4luc cells [1]; [7]) was 8348 RLU and the “Δ (positive - normal) SRR % s” value (CHO-RMc4luc cells [1]; [7]) was 180%.

For `C[C@]12C=CC(=O)C=C1CC[C@@H]1[C@@H]2C(=O)C[C@@]2(C)[C@H]1CC[C@]2(O)C(=O)CO` [Prednisone], the “signal intensity (RLU) compared to 40 μM dexamethasone” value (CHO-RMc4luc cells [1]) was “equal signal intensities”, the “Δ (positive - normal) RLU” value (CHO-RMc4luc cells [1]; [3]) was 8717 RLU and the “Δ (positive - normal) SRR % s” value (CHO-RMc4luc cells [1]; [3]) was 150%. For the same compound, the “Δ (positive - normal) RLU” value (CHO-RMc4luc cells [1]; [4]) was 8219 RLU, the “Δ (positive - normal) SRR % s” value (CHO-RMc4luc cells [1]; [4]) was 133% and the “Δ (positive - normal) RLU” value (CHO-RMc4luc cells [1]; [5]) was 8429 RLU. The “Δ (positive - normal) SRR % s” value (CHO-RMc4luc cells [1]; [5]) was 142%, the “Δ (positive - normal) RLU” value (CHO-RMc4luc cells [1]; [6]) was 8107 RLU and the “Δ (positive - normal) SRR % s” value (CHO-RMc4luc cells [1]; [6]) was 165%.
